Reference: patent publication US20130281397A1, “TREATMENT OF DISEASES BY EPIGENETIC REGULATION” (RVX Therapeutics Inc., priority 2012, published 2013)

Experiments:
c-myc = test: Inhibition of c-myc expression (mRNA, real-time PCR) in MV4-11 cells; type: cell-based, Human; design: key: Active: Compounds with an IC50 value less than 30 μM were deemed to be active; conditions: 3 hours at 37° C., duplex with cyclophilin
Procedure: MV4-11 cells (2.5×10^4 cells) were plated in 96 well U-bottom plates with test compound or DMSO (0.1%), and incubated for 3 hours at 37° C. Cells were then harvested by centrifugation, lysed, and mRNA was isolated using the mRNA catcher plus kit (Invitrogen). Reverse transcription of the mRNA and duplex amplification of the c-myc and cyclophilin cDNAs were performed using the RNA Ultrasense kit (Invitrogen) and a ViiA7 real-time PCR machine (Applied Biosystems). IC50 values were determined from a dose response curve.

Human AML MV-4-11 cells = test: Inhibition of cell proliferation in human AML MV-4-11 cells; type: cell-based; design: key: Active: Compounds with an IC50 value less than 30 uM were deemed to be active; conditions: 72 hours, CellTiter Aqueous One Solution, 30 uM to 0.2 μM
Procedure: MV4-11 cells: 96-well plates were seeded with 5×10^4 cells per well of exponentially growing human AML MV-4-11 (CRL-9591) cells and immediately treated with two-fold dilutions of test compounds, ranging from 30 uM to 0.2 μM. Triplicate wells were used for each concentration, as well as a media only and three DMSO control wells. The cells and compounds were incubated at 37° C., 5% CO2 for 72 hours before adding 20 μL of the CellTiter Aqueous One Solution (Promega) to each well and incubating at 37° C., 5% CO2 for an additional 3-4 hours. The absorbance was taken at 490 nm in a spectrophotometer and the percentage of proliferation relative to DMSO-treated cells was calculated after correction from the blank well. IC50 were calculated using the GraphPad Prism software.

Brd4 bromodomain 1 = target: T1, Brd4 bromodomain 1 (Homo sapiens, UniProt O60885); test: Inhibition of binding of tetra-acetylated histone H4 and Brd4 bromodomain 1 by TR-FRET; conditions: His-tagged bromodomain 200 nM, biotinylated tetra-acetylated histone H4 peptide 25-50 nM, 2 hours at room temperature
T1 construct: made in house; host or cells: E. coli BL21(DE3)

**Q.** What does the source list for `COc1cc(OC)c2c(=O)n(C)c(-c3cc(C)c(O)c(C)c3)cc2c1` [Example 4, 3-(4-hydroxy-3,5-dimethylphenyl)-6,8-dimethoxy-2-methylisoquinolin-1(2H)-one]?
**A.** c-myc activity (<30 uM) (c-myc): Active; cell proliferation activity (<30 uM) (Human AML MV-4-11 cells): Active; melting point: 253 to 254 °C; FRET activity (<50 uM) (Brd4 bromodomain 1): Active

**Q.** What does the source list for `COc1cc(OC)c2c(=O)[nH]c(-c3cc(C)c(O)c(C)c3)nc2c1` [Example 10, 2-(4-hydroxy-3,5-dimethylphenyl)-5,7-dimethoxyquinazolin-4(3H)-one]?
**A.** c-myc activity (<30 uM) (c-myc): Active; cell proliferation activity (<30 uM) (Human AML MV-4-11 cells): Active; FRET activity (<50 uM) (Brd4 bromodomain 1): Active

**Q.** What does the source list for `COc1cc(OC)c2c(=O)[nH]c(-c3cc(C)c(OCCO)c(C)c3)nc2c1` [Example 16, 2-(4-(2-hydroxyethoxy)-3,5-dimethylphenyl)-5,7-dimethoxyquinazolin-4(3H)-one]?
**A.** c-myc activity (<30 uM) (c-myc): Active; FRET activity (<50 uM) (Brd4 bromodomain 1): Active

**Q.** For `COc1cc(OC)c2c(=O)[nH]c(-c3cc(C)c(OCCN4CCOCC4)c(C)c3)nc2c1` [Example 17, 2-(3,5-dimethyl-4-(2-morpholinoethoxy)phenyl)-5,7-dimethoxyquinazolin-4(3H)-one], which “cell proliferation activity (<30 uM)” value (Human AML MV-4-11 cells) is on record?
**A.** Active

**Q.** What about the “FRET activity (<50 uM)” value (Brd4 bromodomain 1) of the same compound?
**A.** Active

**Q.** Which “c-myc activity (<30 uM)” value (c-myc) does the source give for `COc1cc(OC)c2c(=O)[nH]c(-c3ccc(N4CCN(C)CC4)cc3)nc2c1` [Example 38, 5,7-dimethoxy-2-(4-(4-methylpiperazin-1-yl)phenyl)quinazolin-4(3H)-one] here?
**A.** Active

**Q.** What about the “cell proliferation activity (<30 uM)” value (Human AML MV-4-11 cells) of the same compound?
**A.** Active

**Q.** And the “FRET activity (<50 uM)” value (Brd4 bromodomain 1)?
**A.** Active

**Q.** Which “c-myc activity (<30 uM)” value (c-myc) does the source give for `COc1cc2cc(-c3cc(C)c(O)c(C)c3)[nH]c(=O)c2c(OC)c1CN1CCOCC1` [Example 46, 3-(4-hydroxy-3,5-dimethylphenyl)-6,8-dimethoxy-7-(morpholinomethyl)isoquinolin-1(2H)-one] here?
**A.** Active

**Q.** What about the “cell proliferation activity (<30 uM)” value (Human AML MV-4-11 cells) of the same compound?
**A.** Active

**Q.** And the melting point?
**A.** 158 to 161 °C

**Q.** What about the “FRET activity (<50 uM)” value (Brd4 bromodomain 1) of the same compound?
**A.** Active

**Q.** With `COc1cc2nc(-c3cc(C)c(OCCO)c(C)c3)[nH]c(=O)c2cc1OC` [Example 53, 2-(4-(2-hydroxyethoxy)-3,5-dimethylphenyl)-6,7-dimethoxyquinazolin-4(3H)-one] as the compound, how does the melting point read?
**A.** > 300 °C

**Q.** What about the “FRET activity (<50 uM)” value (Brd4 bromodomain 1) of the same compound?
**A.** Inactive

**Q.** Which results are given for `COc1cc(OC)c2c(=O)[nH]c(-c3cc(C)c(NC(=O)CO)c(C)c3)nc2c1` [Example 55, N-(4-(5,7-dimethoxy-4-oxo-3,4-dihydroquinazolin-2-yl)-2,6-dimethylphenyl)-2-hydroxyacetamide]?
**A.** melting point: 190 to 192 °C; FRET activity (<50 uM) (Brd4 bromodomain 1): Active

**Q.** Which “c-myc activity (<30 uM)” value (c-myc) does the source give for `Cc1cc(-c2nc3ccc(CN4CCOCC4)cc3c(=O)[nH]2)cc(C)c1O` [Example 57, 2-(4-hydroxy-3,5-dimethylphenyl)-6-(morpholinomethyl)quinazolin-4(3H)-one] here?
**A.** Active

**Q.** And the “cell proliferation activity (<30 uM)” value (Human AML MV-4-11 cells)?
**A.** Active

**Q.** What about the “FRET activity (<50 uM)” value (Brd4 bromodomain 1) of the same compound?
**A.** Active

**Q.** Which melting point does the source give for `COc1cc(OC)c2c(=O)[nH]c(-c3cc(C)c(OC)c(C)c3)cc2n1` [Example 58, 2,4-dimethoxy-7-(4-methoxy-3,5-dimethylphenyl)-1,6-naphthyridin-5(6H)-one] here?
**A.** 262 to 263 °C (dec.)

**Q.** And the “FRET activity (<50 uM)” value (Brd4 bromodomain 1)?
**A.** Active

**Q.** With `COc1cc(OC)c2c(=O)[nH]c(-c3cc(C)c(OCC(=O)O)c(C)c3)nc2c1` [Example 59, 2-(4-(5,7-dimethoxy-4-oxo-3,4-dihydroquinazolin-2-yl)-2,6-dimethylphenoxy)acetic acid] as the compound, how does the “c-myc activity (<30 uM)” value (c-myc) read?
**A.** Inactive

**Q.** What about the melting point of the same compound?
**A.** 270 to 272 °C

**Q.** And the “FRET activity (<50 uM)” value (Brd4 bromodomain 1)?
**A.** Active

**Q.** For `COc1cc(OC)c2c(=O)[nH]c(-c3ccc(NC(=O)CO)cc3)nc2c1` [Example 60, N-(4-(5,7-dimethoxy-4-oxo-3,4-dihydroquinazolin-2-yl)phenyl)-2-hydroxyacetamide], which melting point is on record?
**A.** 318 to 319 °C

**Q.** What about the “FRET activity (<50 uM)” value (Brd4 bromodomain 1) of the same compound?
**A.** Inactive

**Q.** What does the source list for `COc1cc(OC)c2c(=O)[nH]c(-c3cc(C)c(O)c(C)c3)nc2n1` [Example 63, 2-(4-hydroxy-3,5-dimethylphenyl)-5,7-dimethoxypyrido[2,3-d]pyrimidin-4(3H)-one]?
**A.** melting point: 297 to 299 °C; FRET activity (<50 uM) (Brd4 bromodomain 1): Active

**Q.** Which results are given for `COc1cc(OC)c2c(=O)[nH]c(-c3ccc(OC)c(CN4CCOCC4)c3)nc2c1` [Example 64, 5,7-dimethoxy-2-(4-methoxy-3-(morpholinomethyl)phenyl)quinazolin-4(3H)-one]?
**A.** melting point: 282.7 to 284.5 °C; FRET activity (<50 uM) (Brd4 bromodomain 1): Active

**Q.** Which results are given for `COc1cc(OC)c2c(=O)[nH]c(-c3cc(C)c(OCCO)c(C)c3)nc2n1` [Example 65, 2-(4-(2-hydroxyethoxy)-3,5-dimethylphenyl)-5,7-dimethoxypyrido[2,3-d]pyrimidin-4(3H)-one]?
**A.** melting point: 255 to 256 °C; FRET activity (<50 uM) (Brd4 bromodomain 1): Active

**Q.** With `COc1cc(OC)c2c(=O)nc(-c3cc(C)c(O)c(C)c3)n(C)c2c1` [Example 66, 2-(4-hydroxy-3,5-dimethylphenyl)-5,7-dimethoxy-1-methylquinazolin-4(1H)-one] as the compound, how does the melting point read?
**A.** 188.5 to 189.1 °C

**Q.** And the “FRET activity (<50 uM)” value (Brd4 bromodomain 1)?
**A.** Active

**Q.** For `COc1cc(OC)c2c(=O)[nH]c(-c3cc(C)c(OCCN4CCCC4)c(C)c3)nc2c1` [Example 67, 2-(3,5-dimethyl-4-(2-(pyrrolidin-1-yl)ethoxy)phenyl)-5,7-dimethoxyquinazolin-4(3H)-one], which “c-myc activity (<30 uM)” value (c-myc) is on record?
**A.** Active

**Q.** What about the “cell proliferation activity (<30 uM)” value (Human AML MV-4-11 cells) of the same compound?
**A.** Active

**Q.** What does the source list for `CC(=O)Nc1ccc2nc(-c3cc(C)c(OCCO)c(C)c3)[nH]c(=O)c2c1` [Example 68, N-(2-(4-(2-hydroxyethoxy)-3,5-dimethylphenyl)-4-oxo-3,4-dihydroquinazolin-6-yl)acetamide]?
**A.** melting point: > 300 °C; FRET activity (<50 uM) (Brd4 bromodomain 1): Inactive

**Q.** What does the source list for `Cc1cc(-c2cc3nc(OC(C)C)cc(OC(C)C)c3c(=O)[nH]2)cc(C)c1O` [Example 69, 7-(4-hydroxy-3,5-dimethylphenyl)-2,4-diisopropoxy-1,6-naphthyridin-5(6H)-one]?
**A.** melting point: 206 to 208 °C; FRET activity (<50 uM) (Brd4 bromodomain 1): Active

**Q.** With `COc1cc(OC)c2c(=O)[nH]c(-c3ccc(O)c(CCO)c3)nc2c1` [Example 70, 2-(4-hydroxy-3-(2-hydroxyethyl)phenyl)-5,7-dimethoxyquinazolin-4(3H)-one] as the compound, how does the melting point read?
**A.** 249 to 250.3 °C

**Q.** And the “FRET activity (<50 uM)” value (Brd4 bromodomain 1)?
**A.** Active

**Q.** For `Cc1cc(C)c2c(=O)[nH]c(-c3cc(C)c(OCCO)c(C)c3)nc2c1` [Example 71, 2-(4-(2-hydroxyethoxy)-3,5-dimethylphenyl)-5,7-dimethylquinazolin-4(3H)-one], which melting point is on record?
**A.** 259.6 to 261.2 °C

**Q.** And the “FRET activity (<50 uM)” value (Brd4 bromodomain 1)?
**A.** Inactive

**Q.** Which results are given for `COc1cc(OC)c2c(=O)[nH]c(-c3ccc(N(CCO)CCO)cc3)nc2n1` [Example 72, 2-(4-(bis(2-hydroxyethyl)amino)phenyl)-5,7-dimethoxy-pyrido[2,3-d]pyrimidin-4(3H)one]?
**A.** melting point: 277 to 279 °C; FRET activity (<50 uM) (Brd4 bromodomain 1): Active

**Q.** For `COCCOc1c(C)cc(-c2nc3cc(OC)cc(OC)c3c(=O)[nH]2)cc1C` [Example 73, 5,7-dimethoxy-2-(4-(2-methoxyethoxy)-3,5-dimethylphenyl)quinazolin-4(3H)-one], which melting point is on record?
**A.** 201 to 202 °C

**Q.** And the “FRET activity (<50 uM)” value (Brd4 bromodomain 1)?
**A.** Active

**Q.** For `Cc1cc(-c2nc3cc(Cl)cc(Cl)c3c(=O)[nH]2)cc(C)c1OCCO` [Example 74, 5,7-dichloro-2-(4-(2-hydroxyethoxy)-3,5-dimethylphenyl)quinazolin-4(3H)-one], which melting point is on record?
**A.** 260.8 to 262.6 °C

**Q.** What about the “FRET activity (<50 uM)” value (Brd4 bromodomain 1) of the same compound?
**A.** Active

**Q.** For `COc1cc2nc(-c3cc(C)c(O)c(C)c3)[nH]c(=O)c2c(OC)c1CN1CCOCC1` [Example 75, 2-(4-hydroxy-3,5-dimethylphenyl)-5,7-dimethoxy-6-(morpholinomethyl)quinazolin-4(3H)-one], which “c-myc activity (<30 uM)” value (c-myc) is on record?
**A.** Active

**Q.** What about the “cell proliferation activity (<30 uM)” value (Human AML MV-4-11 cells) of the same compound?
**A.** Active

**Q.** And the melting point?
**A.** 237 to 239.1 °C

**Q.** And the “FRET activity (<50 uM)” value (Brd4 bromodomain 1)?
**A.** Active

**Q.** Which “c-myc activity (<30 uM)” value (c-myc) does the source give for `COc1cc(OC)c2c(=O)[nH]c(-c3cc(C)c(OCCNS(C)(=O)=O)c(C)c3)nc2c1` [Example 96, N-(2-(4-(5,7-dimethoxy-4-oxo-3,4-dihydroquinazolin-2-yl)-2,6-dimethylphenoxy)ethyl)methanesulfonamide] here?
**A.** Inactive

**Q.** What about the “cell proliferation activity (<30 uM)” value (Human AML MV-4-11 cells) of the same compound?
**A.** Active

**Q.** And the “FRET activity (<50 uM)” value (Brd4 bromodomain 1)?
**A.** Active

**Q.** Which melting point does the source give for `COc1cc(OC)c2c(=O)[nH]c(-c3ccc(OCC(=O)O)c(OC)c3)nc2c1` [Example 97, 2-(4-(5,7-dimethoxy-4-oxo-3,4-dihydroquinazolin-2-yl)-2-methoxyphenoxy)acetic acid] here?
**A.** 275 to 277 °C

**Q.** And the “FRET activity (<50 uM)” value (Brd4 bromodomain 1)?
**A.** Active

**Q.** Which results are given for `COc1cc(O)c2c(=O)[nH]c(-c3cc(C)c(O)c(C)c3)nc2c1` [Example 98, 5-hydroxy-2-(4-hydroxy-3,5-dimethylphenyl)-7-methoxyquinazolin-4(3H)-one]?
**A.** melting point: 291.3 to 293 °C; FRET activity (<50 uM) (Brd4 bromodomain 1): Inactive
